Data set [1] can be described thus: Experiment 1: dexamethasone concentration in the retina after intravitreal, intrascleral or intrachoroidal gelatin implant (LC/MS/MS). As to conditions: Japanese white, rabbit, 3 μg. The data set is classed as in vivo, Japanese white rabbits. As for the experimental part: Experiments were performed to determine the drug release effect of an intrachoroidal implant, an intravitreal implant, and an intrascleral implant. In Experiment 1, the implant was placed in the choroid using the known method illustrated in FIG. 10. […] Therefore, the implant was placed in the choroid using the known method in order to compare the intravitreal implant, the intrascleral implant, and the intrachoroidal implant as to the drug release effect.
Gelatin was cut to have a size of 0.3 (length)×0.3 (width)×0.1 (thick) mm.
Twelve 3-month-old Japanese white rabbits (purchased from Japan SLC, Inc., weight: 2 to 2.5 kg) were used as subjects. The rabbits were equally divided into an intrachoroidal implant group, an intravitreal implant group, and an intrascleral implant group, and the implant was placed in one of the eyes of each rabbit belonging to each group.
Regarding the intrachoroidal implant group, the vitreous gel in the eyeball was liquefied, and the implant was placed in the choroid using the known method for placing an implant in the choroid. The implant was placed in the choroid at a position 6 mm below the cornea.
Regarding the intravitreal implant group, the implant was placed in the vitreous body at a position 2 mm above the cornea.
Regarding the intrascleral implant group, the implant was placed in the sclera at a position 6 mm below the cornea.
The eyeball was removed from each rabbit (four rabbits) belonging to each group when 1, 3, and 24 hours had elapsed after the placement of the implant. […] In FIG. 14, the symbol “*” indicates P<0.05, and the symbol “**” indicates P<0.01.

A short description of data set [2]: Experiment 2: dexamethasone concentration in the retina after DEX-PLA implant placed in the choroid near the optic disc (LC/MS/MS). In kind it is in vivo, Japanese white rabbits. To be noted: Japanese white, rabbit, other: intrachoroidal implant near the optic disc, 3 μg. The text has this: Nine 3-month-old Japanese white rabbits (purchased from Japan SLC, Inc., weight: 2 to 2.5 kg) were used as subjects, and the implant was placed in one of the eyes of each rabbit.
The implant was placed in the choroid using the method for placing an implant in the choroid according to the embodiments of the invention. Specifically, the conjunctiva was incised, and an injection needle having a size of 25G was inserted between the conjunctiva and the sclera. The tip of the injection needle was advanced to the vicinity of the optic disc along the surface of the sclera. After placing a vitrectomy lens over the cornea so that the eyeground could be observed, the tip of the injection needle appearing white was observed while observing the eyeground through the vitrectomy lens and pressing the sclera using the tip of the injection needle. The tip of the injection needle was moved to determine an appropriate insertion position of the implant in the vicinity of the optic disc, and the tip of the injection needle was inserted diagonally into the sclera. The tip of the injection needle was advanced into the choroid, and the implant was inserted into the choroid through the tip opening formed at the tip of the injection needle.
The eyeball was removed from each rabbit (three rabbits) belonging to each group when 24 hours, 1 week, and 3 weeks had elapsed after the placement of the implant.

SMILES strings stand for the structures.

Turning to `C[C@@H]1C[C@H]2[C@@H]3CCC4=CC(=O)C=C[C@]4(C)[C@@]3(F)[C@@H](O)C[C@]2(C)[C@@]1(O)C(=O)CO` [dexamethasone], in data set [1] (other: intrachoroidal implant), the concentration at 1 h is 409 ± 115 ng/g, the concentration at 3 h is 23.8 ± 10.2 ng/g and the concentration at 24 h came to 4.7 ± 3.3 ng/g. In data set [1] (other: intrascleral implant), this molecule registered a concentration at 1 h of 122 ± 79.7 ng/g, a concentration at 3 h of 5.4 ± 4 ng/g and a concentration at 24 h of 3.3 ± 3.2 ng/g. In data set [1] (other: intravitreal implant), this molecule yielded a concentration at 1 h of 13.5 ± 8.7 ng/g, a concentration at 3 h of 3.6 ± 4.2 ng/g and a concentration at 24 h of 4.2 ± 4.5 ng/g. Also, in data set [2], the concentration at 1 week stood at 41.2 ± 14.2 ng/g, the concentration at 3 weeks worked out at 17.2 ± 11.3 ng/g and the concentration at 24 h was determined as 159 ± 28.2 ng/g.

(Values after US10463532B2, “Method for placing implant in choroid that can less invasively and simply place implant in choroid in optic disc-macula area” (priority 2016, dated 2019).)
